Data: US6566047B1, “Method for identifying neurite-growth promoting agents” (The Regents of the University of Colorado, priority 1998, dated 2003)

Experiments:
12-Lox = experiment: Eicosanoid (HETE) generation in GCPs; type: biochemical, rat
Procedure: Eicosanoid Assays. Eicosanoid production in GCPs was measured by metabolic labelling from ^14C-AA or ^14C-AA-PC or by mass spectrometric detection. […] To measure Lox activity directly, without PLA2 involvement, ^3H-AA was the substrate of choice. Reactions were stopped by the addition of chloroform/methanol as for the phospholipase assays. Reaction products were extracted as described by Birkle et al., Neuromethods, vol. 7, pp.227-244 (Humana Press, N.J. 1988), spotted on pre-activated si gel 60 TLC plates, and the plates developed in the upper phase of ethyl acetate/isooctane/acetic acid/water (100:60:20:100). AA and HETEs were identified by co-migration with standards. Appropriate bands were counted by liquid scintillation spectrometry.
For mass-spectrometric (MS) identification of HETEs, two different strategies were pursued:
(1) the appropriate bands from non-labelled samples (PC substrate) were scraped from the TLC plate into ether/methanol (9:1) and stored under N2 at −20° C. Authentic 12(S)-HETE, run alongside in the same manner, was used as a standard. Just prior to analysis, samples were passed over an SPE filter to eliminate silica particles, dried under argon, resuspended in 500 μl ethanol, and injected (at 3 μl/min) into a Finnigan LCQ quadrupole ion trap mass spectrometer (Finnigan MAT, San Jose, Calif.) equipped with an electrospray ionization source. All spectra were acquired at a capillary temperature of 80° C., and ion guide voltages were tuned to maximize the abundance of the deprotonated ion species [M-H]^− in negative mode. In order to generate a spectrum, typically 100 single scans were averaged.
(2) For the other strategy (liquid chromatography/tandem MS, LC/MS^2), the reaction substrate consisted of 3.5 μM AA, with the addition of 3.5 μM deuterated AA (AA-D8) plus 1 μCi ^3H-AA to track reaction products by mass and radioactivity, respectively. Reactions were stopped with ice-cold ethanol, the mixtures kept overnight at −20° C. under N2, and the proteins spun out The supernatants were diluted with H2O and loaded onto 1-ml C18 Sep-Pak columns (Varian). After washing with H2O, eicosanoid was eluted with 2 ml methanol. These samples were resolved by reverse-phase HPLC, and the eluted fractions analyzed by tandem MS on-line (MacMillan and Murphy, 1995). Collision-induced decomposition of HETE isomers produced characteristic fragments that were identified at the second MS stage.

AT-2 cells = experiment: Pseudopod length / retraction assay, AT-2 cells; type: cell-based, rat; conditions: AA even at 10^−1M
Procedure: Pseudopod Morphometry. To study the effects of various agents on pseudopods on a short-term basis, we measured pseudopod lengths. Cells plated in 35-mm diameter dishes at low density (1×10^4 per dish) were incubated overnight, tie medium was changed, and the experiments were run four hours later. First, cultures were shifted to serum-free medium, which was replaced one hour later by serum-free medium with or without the various agents (thrombin, AA or HETEs). Care was taken to avoid heat and light inactivation of the eicosanoids. Culture dishes were placed on a Zeiss inverted microscope equipped with a heated stage and viewed with a 16×phase contrast objective lens. Randomly selected fields of the cultures, containing generally about 20 cells each, were recorded, digitized and stored in the computer at the onset of the experiment and at different times thereafter.
In some cases, individual cells were monitored over different periods of time immediately after introduction of the reagent, either by mixing it into the medium or by applying it locally to one end of the cell. Local application was done with a “puffer” system that expels microliter amounts of the desired solution from a micromanipulator-controlled micropipette tip. Cell morphology was recorded, and the captured images were analyzed with a Power Macintosh computer using NIH Image. Cell process length was measured from the center of the nucleus to the end of the process. Characterization of the frequencies of pseudopod lengths, at a fixed time for each of a sequence of concentrations of reagent, utilized a gamma regression model with an inverse quadratic linear predictor (McCullagh and Nelder, Generalized Linear Models 2d ed., pp. 291-292 (Chapman & Hall, 1989), separately fit to each concentration data set. Although no formal goodness-of-fit tests were carried out, in virtually every case there was good visual representation of the pattern of response (see FIG. 14). Most data, however, are shown as whisker-box plots, where the center point represents the 50%, the ends of the box the […] and 75%, and the “whiskers” the 5% and 95% quantiles (e.g., FIG. 11). Statistical comparisons of pseudopod lengths for different treatments were done by standard non-parametric techniques (Wilcoxon Rank Sum or Kruskal-Wallis Tests), as judged appropriate. Polynomial curve fittings were done by standard least-squares techniques. Statistical analyses and graphing were done with the use of SAS procedures: Reg, Phreg, Nparlway and Plot (SAS institute Inc., Cary, N.C.).

protein kinase C (PKC) = experiment: MARCKS phosphorylation by PKC in isolated GCPs; type: biochemical, rat; conditions: isolated growth cones
Excerpt: FIG. 7A. Thrombin stimulates MARCKS phosphorylation in a 12-LOX-dependent manner. FIG. 7B. 12(S)-HETE stimulates MARCKS phosphorylation by PKC in isolated GCPs. […] Polypeptides were resolved by SDS-PAGE. MARCKS phosphorylation was quantified by phosphorimaging.

“thrombin: potent growth cone repellent; commercially available thrombin (Sigma); rat thrombin in Boyden assays” was tested, and the “effect on HETE production from AA” value (12-Lox; 3H-AA substrate) was “does indeed stimulate HETE production from AA”, the “increase of radioactivity co-migrating with 12-HETE above control” value (12-Lox; 14C-AA-PC substrate, thrombin 100 nM) was “approximately 2.5 fold” and the “increase of MS peak at m/z 381 in TLC band co-migrating with 12(S)-HETE” value (12-Lox; GCPs first stimulated with thrombin) was ~2 fold. For the same substance, the “increase in generation of compound co-migrating with 12(S)-HETE from 14C-AA-labelled phospholipid, relative to controls” value (12-Lox; growth cones stimulated with thrombin) was 4-8 fold, the “pseudopod retraction response of AT-2 cells” value (AT-2 cells) was “essentially did not respond” and the “stimulation of MARCKS and GAP43 phosphorylation” value (protein kinase C (PKC)) was “stimulates MARCKS and GAP43 phosphorylation”.
